# Earlier results, collected in patent US20230172916A1, “COMPOSITION COMPRISING AT LEAST ONE PROTOBERBERINE ALKALOID AND METHOD FOR MANUFACTURING SAME” (ELEONOR, priority 2020, published 2023).
# Like-named read-outs stand apart in the source and are kept apart here.
# Columns and labels:
# [1] = scientific studies report; species not stated
# [2] = laboratory rats subjected to experiments
smiles,measurement,setting,value
"COc1ccc2cc3[n+](cc2c1OC)CCc1cc2c(cc1-3)OCO2 [berberine, 2,3-methylenedioxy-9,10-dimethoxy-protoberberine]",bioavailability,[1],less than 5%
same,bioavailability,[2],about 0.68%
